Legend:
[1] = test system: Escherichia genus microbes; test: Test of fast-acting microbicidal efficacy (viable cell count against contact time); assay type: cell-based; settings: pH 8
Experimental: Escherichia genus microbes, which were subjected to cell washing, were diluted with phosphate/citrate buffer solution (pH 8) to a concentration of approximately 10^6 CFU/ml, and 1 L each of the prepared solution was poured into glass beakers. Example 1 or 8, and the powdered substance of Compound A1 were each added thereto so as to bring to a prescribed concentration (indicated based on active ingredient), respectively, and the mixtures were stirred for 90 minutes. A portion of each mixture was taken at 5, 10, 30, and 90 minutes and was diluted with sterilized water. Then, the diluted mixture was inoculated onto a nutrient plate agar medium and cultured in an incubator at 30° C. for 3 days. Then, viable cells therein were counted. The results are shown in Tables 6 and 7 in the unit of CFU/ml. Tables 6 and 7 indicate the results obtained by conducting the tests over two separate occasions under the above conditions.

[2] = Test of sustainability of deodorant effect against active sludge (gas detector tubes); settings: gas phase over 40% sludge suspension, ND = equal to or lower than detection limit
Experimental: Active sludge (dehydrated cake, water content 70%) obtained from a sewage treatment plant was used for tests on the deodorant effect. The obtained active sludge was suspended with distilled water to form a 40% suspension. Example 9, Comparative Example 2, or powdered Compound A2 was then added to the suspension in a prescribed amount (indicated based on active ingredient) and stirred. 200 g of each suspension containing Example 9, Comparative Example 2, or powdered Compound A2 was transferred to a 1-liter Erlenmeyer flask, and the flask was sealed with a rubber stopper provided with 2 glass pipes each having a rubber tube and a pinchcock. […] The measurement of each gas component was conducted by inserting a gas detector tube into one of the rubber tubes with both pinchcocks open. Used herein were a gas detector 3L (GASTEC CORPORATION) for ammonia, a gas detector 3L (GASTEC CORPORATION) for hydrogen sulfide, and a gas detector 71 (GASTEC CORPORATION) for methyl mercaptan.

[3] = 10 ppm active ingredient, 1 hour later
[4] = 10 ppm active ingredient, 2 hours later
[5] = 20 ppm active ingredient, 1 hour later
[6] = 20 ppm active ingredient, 2 hours later
[7] = 40 ppm active ingredient, 1 hour later
[8] = 40 ppm active ingredient, 2 hours later
[9] = 80 ppm active ingredient, 2 hours later

Structure (SMILES): CC1(C)C(=O)N(Br)C(=O)N1Br [Compound A1, 1,3-dibromo-5,5-dimethylhydantoin]
- viable cells ([1]; 0.25 ppm active ingredient, contact time 5 min, Table 6): 3.0 × 10^6 CFU/ml
- viable cells ([1]; 0.25 ppm active ingredient, contact time 5 min, Table 7): 5.6 × 10^6 CFU/ml
- viable cells ([1]; 0.25 ppm active ingredient, contact time 10 min, Table 6): 3.1 × 10^6 CFU/ml
- viable cells ([1]; 0.25 ppm active ingredient, contact time 10 min, Table 7): 5.1 × 10^6 CFU/ml
- viable cells ([1]; 0.25 ppm active ingredient, contact time 30 min, Table 6): 4.5 × 10^5 CFU/ml
- viable cells ([1]; 0.25 ppm active ingredient, contact time 30 min, Table 7): 3.7 × 10^5 CFU/ml
- viable cells ([1]; 0.25 ppm active ingredient, contact time 90 min, Table 6): 3.7 × 10^5 CFU/ml
- viable cells ([1]; 0.25 ppm active ingredient, contact time 90 min, Table 7): 2.7 × 10^5 CFU/ml
- viable cells ([1]; 0.5 ppm active ingredient, contact time 5 min, Table 6): 3.0 × 10^6 CFU/ml
- viable cells ([1]; 0.5 ppm active ingredient, contact time 5 min, Table 7): 5.0 × 10^6 CFU/ml
- viable cells ([1]; 0.5 ppm active ingredient, contact time 10 min, Table 6): 7.7 × 10^5 CFU/ml
- viable cells ([1]; 0.5 ppm active ingredient, contact time 10 min, Table 7): 6.7 × 10^5 CFU/ml
- viable cells ([1]; 0.5 ppm active ingredient, contact time 30 min, Table 6): 8.0 × 10^4 CFU/ml
- viable cells ([1]; 0.5 ppm active ingredient, contact time 30 min, Table 7): 8.0 × 10^4 CFU/ml
- viable cells ([1]; 0.5 ppm active ingredient, contact time 90 min, Table 6): <10^2 CFU/ml
- viable cells ([1]; 0.5 ppm active ingredient, contact time 90 min, Table 7): <10^2 CFU/ml
- viable cells ([1]; 1.0 ppm active ingredient, contact time 5 min, Table 6): 2.9 × 10^6 CFU/ml
- viable cells ([1]; 1.0 ppm active ingredient, contact time 5 min, Table 7): 4.8 × 10^6 CFU/ml
- viable cells ([1]; 1.0 ppm active ingredient, contact time 10 min, Table 6): 2.7 × 10^5 CFU/ml
- viable cells ([1]; 1.0 ppm active ingredient, contact time 10 min, Table 7): 2.9 × 10^5 CFU/ml
- viable cells ([1]; 1.0 ppm active ingredient, contact time 30 min, Table 6): 4.0 × 10^3 CFU/ml
- viable cells ([1]; 1.0 ppm active ingredient, contact time 30 min, Table 7): 8.8 × 10^3 CFU/ml
- viable cells ([1]; 1.0 ppm active ingredient, contact time 90 min, Table 6): <10^2 CFU/ml
- viable cells ([1]; 1.0 ppm active ingredient, contact time 90 min, Table 7): <10^2 CFU/ml
- viable cells ([1]; 1.5 ppm active ingredient, contact time 5 min, Table 6): 3.3 × 10^6 CFU/ml
- viable cells ([1]; 1.5 ppm active ingredient, contact time 5 min, Table 7): 4.3 × 10^6 CFU/ml
- viable cells ([1]; 1.5 ppm active ingredient, contact time 10 min, Table 6): 5.0 × 10^4 CFU/ml
- viable cells ([1]; 1.5 ppm active ingredient, contact time 10 min, Table 7): 3.0 × 10^4 CFU/ml
- viable cells ([1]; 1.5 ppm active ingredient, contact time 30 min, Table 6): 2.0 × 10^2 CFU/ml
- viable cells ([1]; 1.5 ppm active ingredient, contact time 30 min, Table 7): <10^2 CFU/ml
- viable cells ([1]; 1.5 ppm active ingredient, contact time 90 min, Table 6): <10^2 CFU/ml
- viable cells ([1]; 1.5 ppm active ingredient, contact time 90 min, Table 7): <10^2 CFU/ml
- viable cells ([1]; 2.0 ppm active ingredient, contact time 5 min, Table 6): 1.0 × 10^5 CFU/ml
- viable cells ([1]; 2.0 ppm active ingredient, contact time 5 min, Table 7): 3.2 × 10^5 CFU/ml
- viable cells ([1]; 2.0 ppm active ingredient, contact time 10 min, Table 6): 2.0 × 10^4 CFU/ml
- viable cells ([1]; 2.0 ppm active ingredient, contact time 10 min, Table 7): 1.2 × 10^4 CFU/ml
- viable cells ([1]; 2.0 ppm active ingredient, contact time 30 min, Table 6): <10^2 CFU/ml
- viable cells ([1]; 2.0 ppm active ingredient, contact time 30 min, Table 7): <10^2 CFU/ml
- viable cells ([1]; 2.0 ppm active ingredient, contact time 90 min, Table 6): <10^2 CFU/ml
- viable cells ([1]; 2.0 ppm active ingredient, contact time 90 min, Table 7): <10^2 CFU/ml

Structure (SMILES): CC1(C)C(=O)N(Cl)C(=O)N1Br [Compound A2, 1-bromo-3-chloro-5,5-dimethylhydantoin]
- Volume of Ammonia [2, 3]: 40 ppm
- Volume of Hydrogen sulfide [2, 3]: 5.0 ppm
- Volume of Methyl mercaptan [2, 3]: 10 ppm
- Volume of Ammonia [2, 4]: 40 ppm
- Volume of Hydrogen sulfide [2, 4]: 5.0 ppm
- Volume of Methyl mercaptan [2, 4]: 10 ppm
- Volume of Ammonia [2, 5]: 40 ppm
- Volume of Hydrogen sulfide [2, 5]: 5.0 ppm
- Volume of Methyl mercaptan [2, 5]: 10 ppm
- Volume of Ammonia [2, 6]: 40 ppm
- Volume of Hydrogen sulfide [2, 6]: 5.0 ppm
- Volume of Methyl mercaptan [2, 6]: 10 ppm
- Volume of Ammonia [2, 7]: 10 ppm
- Volume of Hydrogen sulfide [2, 7]: 2.5 ppm
- Volume of Methyl mercaptan [2, 7]: 0.5 ppm
- Volume of Ammonia [2, 8]: 40 ppm
- Volume of Hydrogen sulfide [2, 8]: 5.0 ppm
- Volume of Methyl mercaptan [2, 8]: 10 ppm
- Volume of Ammonia [2, 9]: 20 ppm
- Volume of Hydrogen sulfide [2, 9]: 5.0 ppm
- Volume of Methyl mercaptan [2, 9]: 5.0 ppm

Source: US6881418B2, “Liquid deodorant killing microorganism and method of microorganism-killing deodorization” (K.I Chemical Industry Co., Ltd., priority 2001, dated 2005)
